Some test systems named below: SW-620; SNB-75; NCI-H522; OVCAR-4; HCT-15; HL-60; SNB-19; SF-539; NCI-H460; TK-10; UACC-257; OVCAR-5; NCI-H226; RXF 393; HOP-92.
Test in all cases: NCI tumour cell line growth inhibition, 48 h

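In this assay, cells in 96-well plates receive the compound at five concentrations for 48 hours. Endpoints are linearly interpolated between the surrounding concentrations. At the GI50, growth is halved.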 Activity calls are given as the source filed them. Rule as the data show it: active = GI50 up to about 1.1 µM and inactive = higher.

Consider `C/C(=N/N)c1ccc2[nH]c3c(C)cc([N+](=O)[O-])c(C)c3c2c1`, for which the GI50 with SW-620 is 7.53 µM (inactive); with SNB-75, 22.9 µM (inactive); in the test with NCI-H522, 8.51 µM (inactive); in the test on OVCAR-4, 14.8 µM (inactive); in the test with HCT-15 it was 9.55 µM; with HL-60, > 100 µM (inactive). Also, the GI50 was 14.4 µM (inactive) in the test with SNB-19; 4.76 µM (inactive) in the test with SF-539; 5.87 µM (inactive) in the test on NCI-H460; 12.2 µM (inactive) in the test on TK-10; 18.6 µM (inactive) in the test on UACC-257; > 10 µM (inactive) in the test on OVCAR-5. The GI50 with NCI-H226 was 14.3 µM (inactive).

As for `CCCCCCN(N)C(=O)CC#N`, the GI50 is 16.9 µM (inactive) in the test on RXF 393; > 100 µM (inactive) in the test with SW-620; > 100 µM (inactive) in the test on SNB-75; 23.9 µM (inactive) in the test with NCI-H522; 48.4 µM (inactive) in the test on OVCAR-4; more than 100 µM with HCT-15. The GI50 in the test with SNB-19 is > 10 µM (inactive); in the test on SF-539, > 100 µM (inactive); in the test on NCI-H460 it was > 100 µM (inactive); with HOP-92 it was 53 µM (inactive); in the test on TK-10, > 100 µM (inactive); in the test with UACC-257, > 100 µM (inactive). The GI50 was 52.2 µM (inactive) with OVCAR-5 and > 100 µM (inactive) in the test on NCI-H226.

Take `O/N=C1/C(=C/c2ccc(Cl)c(Cl)c2)CCCC1C(NO)c1ccc(Cl)c(Cl)c1` (stereo not drawn): the GI50 in the test on RXF 393 is 19.7 µM (inactive); in the test with SW-620, 17.9 µM (inactive); with SNB-75 it was 16.6 µM (inactive); in the test with NCI-H522 it was 10.1 µM (inactive); with OVCAR-4, 12.9 µM (inactive); with HCT-15, 16.8 µM. For the same compound, the GI50 was 17.6 µM (inactive) in the test on HL-60; 17.6 µM (inactive) in the test with SNB-19; 18.1 µM (inactive) in the test on SF-539; 21.1 µM (inactive) with NCI-H460; 19.8 µM (inactive) with TK-10; 18.7 µM (inactive) in the test with UACC-257.

As to `CCCC(C)C[C@@H](C)CC(C)/C=C(\C)c1oc(=O)c(C)c(O)c1C.CC[C@@H](C)C[C@@H](C)C[C@@H](C)/C=C(\C)c1oc(=O)c(C)c(O)c1C` (stereo partly drawn), the GI50 in the test on RXF 393 was 13.4 µM (inactive); with SW-620, 17.7 µM (inactive); in the test on SNB-75 it was 13.6 µM (inactive); in the test with NCI-H522, 14.8 µM (inactive); in the test on OVCAR-4 it was 10.4 µM (inactive); in the test on HL-60, 13.6 µM (inactive). For the same compound, the GI50 with SNB-19 is 14.2 µM (inactive); in the test with SF-539 it was 15.4 µM (inactive); with NCI-H460 it was 9.29 µM (inactive); in the test on TK-10, 19.5 µM (inactive); in the test with UACC-257, 14.7 µM (inactive); in the test with OVCAR-5 it was 6.19 µM (inactive). In addition, the GI50 in the test with NCI-H226 was 15.5 µM (inactive).

Turning to `Cc1cc(O)c2c3c1C(=O)Oc1c(CO)c(O)c(C(=O)O)c(c1O3)C=NN=Cc1c3c(c(CO)c(O)c1C(=O)O)OC(=O)c1c(C)cc(O)c(c1O3)C=NN=C2`, the GI50 was > 100 µM (inactive) with RXF 393; > 100 µM (inactive) in the test on SW-620; > 100 µM (inactive) in the test on SNB-75; > 100 µM (inactive) in the test with OVCAR-4; more than 100 µM with HCT-15; > 100 µM (inactive) in the test with SNB-19. The GI50 in the test on SF-539, in the test with NCI-H460, in the test on HOP-92, in the test on TK-10, with UACC-257 and in the test on OVCAR-5 was > 100 µM (inactive) each time. Moreover, the GI50 in the test with NCI-H226 was > 100 µM (inactive).

`Cc1c(Cl)c2ccccc2n1S(=O)(=O)c1ccccc1`: the GI50 in the test on SW-620 is 38.5 µM (inactive); in the test with SNB-75, 19.9 µM (inactive); with NCI-H522, 19.6 µM (inactive); with OVCAR-4, 36.7 µM (inactive); in the test with HCT-15, 37.3 µM; with HL-60 it was 25.8 µM (inactive). Further, the GI50 in the test on SNB-19 is 78.7 µM (inactive); with SF-539 it was 54.1 µM (inactive); in the test on NCI-H460, 44.6 µM (inactive); in the test with HOP-92, 15.7 µM (inactive); in the test on TK-10 it was 65.9 µM (inactive); with UACC-257 it was 53.1 µM (inactive). For the same compound, the GI50 was 33.5 µM (inactive) with OVCAR-5 and 37 µM (inactive) with NCI-H226.

For the compound `COc1ccc([N+]2=NC(c3ccc([N+](=O)[O-])cc3)=NN(c3ccccc3)C2)cc1.[O-][Cl+3]([O-])([O-])[O-]`, the GI50 was 67.9 µM (inactive) in the test with RXF 393; > 100 µM (inactive) with SW-620; 3.65 µM (inactive) with NCI-H522; > 100 µM (inactive) with OVCAR-4; 41.9 µM in the test with HCT-15; 22.3 µM (inactive) in the test with HL-60. Besides, the GI50 in the test on SNB-19 was > 100 µM (inactive); in the test on NCI-H460, 64.6 µM (inactive); in the test with TK-10, > 100 µM (inactive); with UACC-257, > 100 µM (inactive); in the test with OVCAR-5 it was > 100 µM (inactive); in the test on NCI-H226 it was > 100 µM (inactive).

For the compound `COC(=O)CC(NC(=O)OCc1ccccc1)C(C(=O)OCc1ccccc1)C1(C)OCCO1` (stereo not drawn), the GI50 in the test on RXF 393 is 21.4 µM (inactive); in the test on SW-620, 47.6 µM (inactive); in the test on SNB-75, 23.6 µM (inactive); with OVCAR-4 it was 67.6 µM (inactive); with HCT-15, 37.8 µM; in the test with HL-60 it was 21.1 µM (inactive). Besides, the GI50 in the test with SNB-19 is 50 µM (inactive); in the test with SF-539 it was 54.6 µM (inactive); in the test on NCI-H460, 34.7 µM (inactive); with TK-10, 57.1 µM (inactive); in the test with UACC-257 it was 30.4 µM (inactive); in the test on NCI-H226 it was 22.5 µM (inactive).

Take `C/C(=C1/N=C(c2cc([N+](=O)[O-])ccc2Cl)N(c2ccc(Br)cc2)C1=O)c1ccc(N(CCC#N)CCC#N)cc1C`: the GI50 with RXF 393 was 16.8 µM (inactive); in the test on SW-620 it was 12.7 µM (inactive); with SNB-75, > 100 µM (inactive); with OVCAR-4, 38.8 µM (inactive); in the test on HCT-15, 16.4 µM; in the test on HL-60, 16.2 µM (inactive). Also, the GI50 is 19.8 µM (inactive) in the test with SNB-19; 52.2 µM (inactive) with SF-539; 25.1 µM (inactive) with NCI-H460; 36.4 µM (inactive) in the test on HOP-92; 68.2 µM (inactive) with TK-10; 57.5 µM (inactive) in the test with UACC-257. Moreover, the results for the GI50 with OVCAR-5 and in the test with NCI-H226 were 50.9 µM (inactive) and > 100 µM (inactive), respectively.

With `Cc1cc(Cl)ccc1NC(=O)/C(=N\NC(C)(C)C)C(C#N)c1nc(-c2ccc([N+](=O)[O-])cc2)cs1` (stereo not drawn), the GI50 with SW-620 is > 100 µM (inactive); with SNB-75 it was > 100 µM (inactive); with NCI-H522, > 100 µM (inactive); with OVCAR-4 it was > 100 µM (inactive); in the test with HCT-15 it was more than 100 µM; with HL-60, > 100 µM (inactive). The GI50 with SNB-19, in the test with SF-539, in the test on NCI-H460, in the test on HOP-92, with TK-10 and in the test on UACC-257 was > 100 µM (inactive) in each case. The GI50 with OVCAR-5 and in the test with NCI-H226 was > 100 µM (inactive) throughout.

For `N#Cc1c(-c2ccc(Cl)c(Cl)c2)c(-c2ccc(Cl)c(Cl)c2)nn(CC(=O)O)c1=O`, the GI50 in the test with RXF 393 was 20.1 µM (inactive); in the test with SW-620, 53.6 µM (inactive); in the test with SNB-75 it was 30.5 µM (inactive); in the test with OVCAR-4, > 100 µM (inactive); in the test with HCT-15 it was 28.2 µM; with HL-60 it was 43.1 µM (inactive). For the same compound, the GI50 is 36.9 µM (inactive) in the test on NCI-H460; > 100 µM (inactive) in the test on HOP-92; > 100 µM (inactive) in the test on TK-10; 66.2 µM (inactive) in the test with UACC-257; > 100 µM (inactive) with OVCAR-5; 24 µM (inactive) with NCI-H226.
